The text below walks through data of US20260285855A1, “HETEROARYL DERIVATIVES AS DDRS INHIBITORS” (CHIESI FARMACEUTICI S.P.A., priority 2023, published 2026).

The target in one assay is T1, DDR1 (Homo sapiens, UniProt Q08345).
T1 construct: purchased Carna Biosciences
Put plainly: LanthaScreen Europium Kinase Binding assay, DDR1. The conditions noted are these: 5 nM DDR1, 20 nM Kinase Tracer 178, 1 h at rt; Ki from IC50 by Cheng-Prusoff; read-out: Ki DDR1. As for the experimental part:
(§1) DDR1 and DDR2 binding assays were performed using Life Technologies LanthaScreen™ Europium Kinase Binding assay. […] IC50 values were determined in GraphPad Prism 7.0 software, using 4 parameter model: log (inhibitor) vs. response. IC50 values were converted in Ki using the Cheng-Prusoff equation (Ki-IC50/(1+ [Tracer]/Kd).

Another assay concerns the target T2, DDR2 (Homo sapiens, UniProt Q16832).
T2 construct: purchased Life Technologies
T2 sequence (Q16832 22-855): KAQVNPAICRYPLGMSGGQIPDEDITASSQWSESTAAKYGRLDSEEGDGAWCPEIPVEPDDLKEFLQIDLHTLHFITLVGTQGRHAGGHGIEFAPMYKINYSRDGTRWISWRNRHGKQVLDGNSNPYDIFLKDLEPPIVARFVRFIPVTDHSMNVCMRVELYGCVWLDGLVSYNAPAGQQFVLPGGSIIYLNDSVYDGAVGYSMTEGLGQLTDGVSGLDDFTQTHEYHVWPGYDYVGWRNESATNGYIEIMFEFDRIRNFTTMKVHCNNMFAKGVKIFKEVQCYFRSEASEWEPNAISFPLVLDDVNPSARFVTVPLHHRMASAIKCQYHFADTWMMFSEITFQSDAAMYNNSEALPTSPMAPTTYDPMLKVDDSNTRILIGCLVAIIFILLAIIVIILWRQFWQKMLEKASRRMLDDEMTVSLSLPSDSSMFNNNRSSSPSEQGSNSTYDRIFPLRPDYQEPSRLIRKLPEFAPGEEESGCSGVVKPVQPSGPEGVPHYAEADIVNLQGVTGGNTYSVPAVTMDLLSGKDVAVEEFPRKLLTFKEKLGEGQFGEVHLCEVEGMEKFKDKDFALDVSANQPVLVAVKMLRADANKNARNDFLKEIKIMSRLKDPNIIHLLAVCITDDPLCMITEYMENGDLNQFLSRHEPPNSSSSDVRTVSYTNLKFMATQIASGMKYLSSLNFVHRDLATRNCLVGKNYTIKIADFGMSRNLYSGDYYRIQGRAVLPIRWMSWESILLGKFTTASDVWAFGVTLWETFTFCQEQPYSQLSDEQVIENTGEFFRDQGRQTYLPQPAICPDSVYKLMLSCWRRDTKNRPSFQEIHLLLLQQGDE
Briefly: LanthaScreen Europium Kinase Binding assay, DDR2. The conditions noted are these: 5 nM DDR2, 10 nM Kinase Tracer 178, 1 h at rt; Ki from IC50 by Cheng-Prusoff; read-out: Ki DDR2. On the procedure:
as §1
For orientation: TR-FRET usually uses a lanthanide donor and a delayed reading to cut background.

The structures appear in SMILES notation.

T1 sequence (Q08345 19-913): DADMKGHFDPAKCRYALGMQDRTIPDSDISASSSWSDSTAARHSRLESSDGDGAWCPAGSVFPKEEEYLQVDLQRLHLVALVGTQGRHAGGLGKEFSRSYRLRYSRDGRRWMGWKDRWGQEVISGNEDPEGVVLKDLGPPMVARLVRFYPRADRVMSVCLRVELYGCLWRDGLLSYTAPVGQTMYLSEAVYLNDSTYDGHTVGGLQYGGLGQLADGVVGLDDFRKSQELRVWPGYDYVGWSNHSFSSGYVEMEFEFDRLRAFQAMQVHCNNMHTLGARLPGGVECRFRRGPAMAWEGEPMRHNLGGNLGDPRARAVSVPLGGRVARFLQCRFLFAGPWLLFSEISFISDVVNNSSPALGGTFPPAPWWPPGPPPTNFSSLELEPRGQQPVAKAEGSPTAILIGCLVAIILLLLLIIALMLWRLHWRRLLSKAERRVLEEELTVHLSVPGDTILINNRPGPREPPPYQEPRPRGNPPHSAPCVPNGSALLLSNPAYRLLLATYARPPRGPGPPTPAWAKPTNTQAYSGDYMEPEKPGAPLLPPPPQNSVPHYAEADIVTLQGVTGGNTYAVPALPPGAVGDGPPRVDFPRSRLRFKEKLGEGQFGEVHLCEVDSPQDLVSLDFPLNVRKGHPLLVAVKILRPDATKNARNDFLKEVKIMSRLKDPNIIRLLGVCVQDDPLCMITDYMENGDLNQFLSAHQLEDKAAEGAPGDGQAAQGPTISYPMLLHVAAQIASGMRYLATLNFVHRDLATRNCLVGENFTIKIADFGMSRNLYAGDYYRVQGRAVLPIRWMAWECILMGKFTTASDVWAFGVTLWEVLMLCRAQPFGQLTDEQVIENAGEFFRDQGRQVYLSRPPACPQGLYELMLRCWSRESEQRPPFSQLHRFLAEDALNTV

Turning to `CN(C(=O)Nc1cc(C(F)(F)F)cnn1)C1CC2(C1)CN(C(=O)c1cnn3ccsc13)C2` [Example 228, 1-methyl-1-(2-(pyrazolo[5,1-b]thiazole-7-carbonyl)-2-azaspiro[3.3]heptan-6-yl)-3-(5-(trifluoromethyl)pyridazin-3-yl)urea], the Ki was below 5 nM on DDR1 and 25 to 100 nM on DDR2.

Consider `Cc1ncc(-c2ccc3c(C(=O)N4CC5(CC(N(C)C(=O)Nc6cncc(C(F)(F)F)c6)C5)C4)cnn3c2)o1` [Example 229, 1-methyl-1-(2-(6-(2-methyloxazol-5-yl)pyrazolo[1,5-a]pyridine-3-carbonyl)-2-azaspiro[3.3]heptan-6-yl)-3-(5-(trifluoromethyl)pyridin-3-yl)urea], for which the Ki was below 5 nM on DDR1 and 5 to 25 nM at DDR2.

As to `CN(C(=O)Nc1cncc(C(F)(F)F)c1)C1CC2(C1)CN(C(=O)c1cnn3cc(-c4cccnc4)ccc13)C2` [Example 230, 1-methyl-1-(2-(6-(pyridin-3-yl)pyrazolo[1,5-a]pyridine-3-carbonyl)-2-azaspiro[3.3]heptan-6-yl)-3-(5-(trifluoromethyl)pyridin-3-yl)urea], the Ki at DDR1 was below 5 nM; at DDR2, 5 to 25 nM.

For `CN(C(=O)Nc1cncc(C(F)(F)F)c1)C1CC2(C1)CN(C(=O)c1cnn3cc(-c4cnn(C)c4)ccc13)C2` [Example 231, 1-methyl-1-(2-(6-(1-methyl-1H-pyrazol-4-yl)pyrazolo[1,5-a]pyridine-3-carbonyl)-2-azaspiro[3.3]heptan-6-yl)-3-(5-(trifluoromethyl)pyridin-3-yl)urea], the values for the Ki at DDR1 and on DDR2 were below 5 nM and 5 to 25 nM, respectively.

In the case of `Cc1ccc(C(F)(F)F)cc1NC(=O)N(C)C1CC2(C1)CN(C(=O)c1cnn3ccn(C)c13)C2` [Example 232, 1-methyl-1-(2-(1-methyl-1H-imidazo[1,2-b]pyrazole-7-carbonyl)-2-azaspiro[3.3]heptan-6-yl)-3-(2-methyl-5-(trifluoromethyl)phenyl)urea], the inhibition constant (Ki) at DDR1 is below 5 nM; at DDR2, 5 to 25 nM.

On to `COc1ccc(-c2ccc3c(C(=O)N4CC5(CC(N(C)C(=O)Nc6cncc(C(F)(F)F)c6)C5)C4)cnn3c2)cc1OC` [Example 233, 1-(2-(6-(3,4-dimethoxyphenyl)pyrazolo [1,5-a]pyridine-3-carbonyl)-2-azaspiro[3.3]heptan-6-yl)-1-methyl-3-(5-(trifluoromethyl)pyridin-3-yl)urea], for which the results for the Ki at DDR1 and at DDR2 were below 5 nM and 5 to 25 nM, respectively.

Turning to `Cc1ncc(-c2ccc3c(C(=O)N4CC5(CC(N(C)C(=O)Nc6cncc(C(F)(F)F)c6)C5)C4)cnn3c2)s1` [Example 234, 1-methyl-1-(2-(6-(2-methylthiazol-5-yl)pyrazolo[1,5-a]pyridine-3-carbonyl)-2-azaspiro[3.3]heptan-6-yl)-3-(5-(trifluoromethyl)pyridin-3-yl)urea], the inhibition constant (Ki) was below 5 nM at DDR1 and 5 to 25 nM on DDR2.

As for `CN(C(=O)Nc1cc(C(C)(C)C(F)(F)F)on1)C1CC2(C1)CN(C(=O)c1cnn3ccsc13)C2` [Example 235, 1-methyl-1-(2-(pyrazolo[5,1-b]thiazole-7-carbonyl)-2-azaspiro[3.3]heptan-6-yl)-3-(5-(1,1,1-trifluoro-2-methylpropan-2-yl)isoxazol-3-yl)urea], the inhibition constant (Ki) is below 5 nM at DDR1 and 5 to 25 nM at DDR2.

Turning to `COc1cc(-c2ccc3c(C(=O)N4CC5(CC(N(C)C(=O)Nc6cncc(C(F)(F)F)c6)C5)C4)cnn3c2)ccn1` [Example 236, 1-(2-(6-(2-methoxypyridin-4-yl)pyrazolo[1,5-a]pyridine-3-carbonyl)-2-azaspiro[3.3]heptan-6-yl)-1-methyl-3-(5-(trifluoromethyl)pyridin-3-yl)urea], the Ki is below 5 nM at DDR1 and 5 to 25 nM on DDR2.

In the case of `Cc1cc(-c2ccc3c(C(=O)N4CC5(CC(N(C)C(=O)Nc6cncc(C(F)(F)F)c6)C5)C4)cnn3c2)on1` [Example 237, 1-methyl-1-(2-(6-(3-methylisoxazol-5-yl)pyrazolo[1,5-a]pyridine-3-carbonyl)-2-azaspiro[3.3]heptan-6-yl)-3-(5-(trifluoromethyl)pyridin-3-yl)urea], the results for the Ki on DDR1 and at DDR2 were below 5 nM and 5 to 25 nM, respectively.

For `CN(C(=O)Nc1cc(C(F)(F)F)ccn1)C1CC2(C1)CN(C(=O)c1cnn3ccccc13)C2` [Example 238, 1-methyl-1-(2-(pyrazolo[1,5-a]pyridine-3-carbonyl)-2-azaspiro[3.3]heptan-6-yl)-3-(4-(trifluoromethyl)pyridin-2-yl)urea], the Ki was below 5 nM on DDR1 and 5 to 25 nM on DDR2.

In the case of `CN(C(=O)Nc1cc(OC(F)(F)F)ccn1)C1CC2(C1)CN(C(=O)c1cnn3ccccc13)C2` [Example 239, 1-methyl-1-(2-(pyrazolo[1,5-a]pyridine-3-carbonyl)-2-azaspiro[3.3]heptan-6-yl)-3-(4-(trifluoromethoxy)pyridin-2-yl)urea], the values for the Ki on DDR1 and at DDR2 were below 5 nM and 5 to 25 nM, respectively.

`CN(C(=O)Nc1cncc(C(F)(F)F)c1)C1CC2(C1)CN(C(=O)c1cnn3cc(N4CCCC4)ccc13)C2` [Example 240, 1-methyl-1-(2-(6-(pyrrolidin-1-yl)pyrazolo[1,5-a]pyridine-3-carbonyl)-2-azaspiro[3.3]heptan-6-yl)-3-(5-(trifluoromethyl)pyridin-3-yl)urea]: the Ki at DDR1 and at DDR2 was 5 to 25 nM each time.

As for `CN(C(=O)Nc1cc(C(F)(F)F)ccn1)C1CC2(C1)CN(C(=O)c1cnn3cc(-c4cnn(C)c4)ccc13)C2` [Example 241, 1-methyl-1-(2-(6-(1-methyl-1H-pyrazol-4-yl)pyrazolo[1,5-a]pyridine-3-carbonyl)-2-azaspiro[3.3]heptan-6-yl)-3-(4-(trifluoromethyl)pyridin-2-yl)urea], the Ki on DDR1 was below 5 nM; on DDR2, 5 to 25 nM.

For `CN(C(=O)Nc1cc(OC(F)(F)F)ccn1)C1CC2(C1)CN(C(=O)c1cnn3cc(-c4cnn(C)c4)ccc13)C2` [Example 242, 1-(2-(6-(1,2-dimethyl-1H-214-pyrazol-4-yl)pyrazolo[1,5-a]pyridine-3-carbonyl)-2-azaspiro[3.3]heptan-6-yl)-1-methyl-3-(4-(trifluoromethoxy)pyridin-2-yl)urea], the Ki at DDR1 is below 5 nM; at DDR2 it was 5 to 25 nM.

For the compound `CN(C(=O)Nc1cncc(C(F)(F)F)c1)C1CC2(C1)CN(C(=O)c1cnn3ccc(N)cc13)C2` [Example 244, 1-(2-(5-aminopyrazolo[1,5-a]pyridine-3-carbonyl)-2-azaspiro[3.3]heptan-6-yl)-1-methyl-3-(5-(trifluoromethyl)pyridin-3-yl)urea], the figures for the inhibition constant Ki on DDR1 and on DDR2 were below 5 nM and 5 to 25 nM, respectively.

For the compound `CN(C(=O)Nc1cncc(C(F)(F)F)c1)C1CC2(C1)CN(C(=O)c1cnn3cc(-c4cncnc4)ccc13)C2` [Example 245, 1-methyl-1-(2-(6-(pyrimidin-5-yl)pyrazolo[1,5-a]pyridine-3-carbonyl)-2-azaspiro[3.3]heptan-6-yl)-3-(5-(trifluoromethyl)pyridin-3-yl)urea], the Ki at DDR1 is below 5 nM; at DDR2, 5 to 25 nM.

As for `Cc1ncc(-c2ccc3c(C(=O)N4CC5(CC(N(C)C(=O)Nc6cncc(C(F)(F)F)c6)C5)C4)cnn3c2)cn1` [Example 246, 1-methyl-1-(2-(6-(2-methylpyrimidin-5-yl)pyrazolo[1,5-a]pyridine-3-carbonyl)-2-azaspiro[3.3]heptan-6-yl)-3-(5-(trifluoromethyl)pyridin-3-yl)urea], the Ki on DDR1 lay within 5 to 25 nM; on DDR2, 25 to 100 nM.

With `CN(C(=O)Nc1cccc(C(F)(F)F)c1)C1CC2(C1)CN(C(=O)c1ncnc3[nH]ccc13)C2` [Example 247, 1-(2-(7H-pyrrolo[2,3-d]pyrimidine-4-carbonyl)-2-azaspiro[3.3]heptan-6-yl)-1-methyl-3-(3-(trifluoromethyl)phenyl)urea], the Ki is below 5 nM on DDR1 and 5 to 25 nM on DDR2.

Turning to `CN(C(=O)Nc1cccc(C(F)(F)F)c1)C1CC2(C1)CN(C(=O)c1ccnc3[nH]ccc13)C2` [Example 248, 1-(2-(1H-pyrrolo[2,3-b]pyridine-4-carbonyl)-2-azaspiro[3.3]heptan-6-yl)-1-methyl-3-(3-(trifluoromethyl)phenyl)urea], the inhibition constant (Ki) on DDR1 is below 5 nM; at DDR2 it was 5 to 25 nM.

`CN(C(=O)Nc1cncc(C(F)(F)F)c1)C1CC2(C1)CN(C(=O)c1cnn3cc(-c4ccncc4)ccc13)C2` [Example 249, 1-methyl-1-(2-(6-(pyridin-4-yl)pyrazolo[1,5-a]pyridine-3-carbonyl)-2-azaspiro[3.3]heptan-6-yl)-3-(5-(trifluoromethyl)pyridin-3-yl)urea]: the Ki was below 5 nM on DDR1 and 5 to 25 nM at DDR2.

As a reminder, the Ki is a dissociation constant, usually derived from enzyme kinetics or from competition with a known ligand.
